Experimental data published in patent publication US9006433B2, “Substituted pyrimidines” (Merck Sharp & Dohme Corp., priority 2010, dated 2015).

target: T1, PHD2 (Homo sapiens, UniProt Q9GZT9); assay: PHD2 inhibition assay (time resolved fluorescence, HIF-1α peptide hydroxylation / VHL complex detection); type: biochemical; conditions: FLAG-tagged full length PHD2; 0.2 μM 2-oxoglutarate, 0.5 μM HIF-1α peptide
T1 construct: FLAG-tagged full length PHD2 expressed in and purified from baculovirus-infected Sf9 cells; FLAG; made in house; host or cells: baculovirus-infected Sf9 cells
Experimental: To each well of a 96-well plate was added 1 μL of test compound in DMSO and 20 μl of assay buffer (50 mM Iris pH 7.4/0.01% Tween-20/0.1 mg/ml bovine serum albumin/10 μM ferrous sulfate/1 mM sodium ascorbate/20 μg/ml catalase) containing 0.15 μg/ml FLAG-tagged full length PHD2 expressed in and purified from baculovirus-infected Sf9 cells. After a 30 min preincubation at room temperature, the enzymatic reactions were initiated by the addition of […] of substrates (final concentrations of 0.2 μM 2-oxoglutarate and 0.5 μM HIF-1α peptide biotinyl-DLDLEMLAPYIPMDDDFQL (SEQ ID NO:1)). After 2 hr at room temperature, the reactions were terminated and signals were developed by the addition of a 25 μL quench/detection mix to a final concentration of 1 mM ortho-phenanthroline, 0.1 mM EDTA, 0.5 nM anti-(His)6 LANCE reagent (Perkin-Elmer Life Sciences), 100 nM AF647-labeled streptavidin (Invitrogen), and 2 μg/ml (His)-6-VHL complex (S. Tan(2001) Protein Expr. Purif. 21, 224-234). The ratio of time resolved fluorescence signals at 665 and 620 nm was determined, and percent inhibition was calculated relative to an uninhibited control sample run in parallel.

T1 sequence (Q9GZT9 whole entry, species assumed): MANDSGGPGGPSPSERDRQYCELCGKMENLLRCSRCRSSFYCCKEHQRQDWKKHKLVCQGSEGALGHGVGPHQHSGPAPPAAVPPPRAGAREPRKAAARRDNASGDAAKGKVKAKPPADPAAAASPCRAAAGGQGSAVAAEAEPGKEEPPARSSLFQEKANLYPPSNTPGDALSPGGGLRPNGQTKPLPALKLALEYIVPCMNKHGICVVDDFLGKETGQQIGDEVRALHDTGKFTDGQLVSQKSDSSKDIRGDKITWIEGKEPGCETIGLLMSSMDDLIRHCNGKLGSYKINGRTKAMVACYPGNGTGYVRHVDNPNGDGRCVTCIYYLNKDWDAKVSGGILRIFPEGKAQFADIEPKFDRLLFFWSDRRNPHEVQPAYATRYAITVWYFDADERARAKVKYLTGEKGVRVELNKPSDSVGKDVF

IC50 [nM] | SMILES
0.5 to 20 | O=C(Nc1cnc(-n2cccn2)nc1O)N(c1ccccc1)c1ccccc1 [Compound 5-7, 3-(4-hydroxy-2-(1H-pyrazol-1-yl)pyrimidin-5-yl)-1,1-diphenylurea]
20 to 100 | O=C(Nc1cnc(-n2cccn2)nc1O)c1ccc(Cl)cc1 [Compound 3-3, 4-chloro-N-(4-hydroxy-2-(1H-pyrazol-1-yl)pyrimidin-5-yl)benzamide]
0.5 to 20 | N#Cc1cccc(CC(=O)Nc2cnc(-n3cccn3)nc2O)c1 [Compound 3-26, 2-(3-cyanophenyl)-N-(4-hydroxy-2-(1H-pyrazol-1-yl)pyrimidin-5-yl)acetamide]
0.5 to 20 | CC(C(=O)Nc1cnc(-n2cccn2)nc1O)c1ccccc1 (stereo not drawn) [Compound 3-33, N-(4-hydroxy-2-(1H-pyrazol-1-yl)pyrimidin-5-yl)-2-phenylpropanamide]
0.5 to 20 | COc1ccc(CC(=O)Nc2cnc(-n3cccn3)nc2O)cc1 [Compound 3-32, N-(4-hydroxy-2-(1H-pyrazol-1-yl)pyrimidin-5-yl)-2-(4-methoxyphenyl)acetamide]
20 to 100 | COc1ccc(C(=O)Nc2cnc(-n3cccn3)nc2O)cc1 [Compound 3-13, N-(4-hydroxy-2-(1H-pyrazol-1-yl)pyrimidin-5-yl)-4-methoxybenzamide]
20 to 100 | CC(C)N(C(=O)Nc1cnc(-n2cccn2)nc1O)c1ccccc1 [Compound 5-8, 3-(4-hydroxy-2-(1H-pyrazol-1-yl)pyrimidin-5-yl)-1-isopropyl-1-phenylurea]
20 to 100 | O=C(Nc1cnc(-n2cccn2)nc1O)c1ccccc1-c1ccccc1 [Compound 3-17, N-[4-hydroxy-2-(1H-pyrazol-1-yl)pyrimidin-5-yl]biphenyl-2-carboxamide]
0.5 to 20 | O=C(Cc1cccc(Cl)c1)Nc1cnc(-n2cccn2)nc1O [Compound 3-24, 2-(3-chlorophenyl)-N-(4-hydroxy-2-(1H-pyrazol-1-yl)pyrimidin-5-yl)acetamide]
100 to 10000 | O=C(Nc1ccccc1)Nc1cnc(-n2cccn2)nc1O [Compound 5-1, 1-(4-hydroxy-2-(1H-pyrazol-1-yl)pyrimidin-5-yl)-3-phenylurea]
20 to 100 | CC(C)(NC(=S)Nc1cnc(-n2cccn2)nc1O)c1ccccc1 [Compound 8-1, 1-(4-hydroxy-2-(1H-pyrazol-1-yl)pyrimidin-5-yl)-3-(2-phenylpropan-2-yl)thiourea]
0.5 to 20 | CCCCCCC(=O)Nc1cnc(-n2cccn2)nc1O [Compound 3-43, N-(4-hydroxy-2-(1H-pyrazol-1-yl)pyrimidin-5-yl)heptanamide]
20 to 100 | CC(C)(C)OC(=O)N1CCC(C(=O)Nc2cnc(-n3cccn3)nc2O)C1 (stereo not drawn) [Compound 3-51, tert-butyl 3-(4-hydroxy-2-(1H-pyrazol-1-yl)pyrimidin-5-ylcarbamoyl)pyrrolidine-1-carboxylate]
0.5 to 20 | O=C(Cc1ccccc1C(F)(F)F)Nc1cnc(-n2cccn2)nc1O [Compound 3-27, 2-(2-(trifluoromethyl)phenyl)-N-(4-hydroxy-2-(1H-pyrazol-1-yl)pyrimidin-5-yl)acetamide]

SMILES | IC50 [nM]
COc1ccc(OC(=O)Nc2cnc(-n3cccn3)nc2O)cc1 [Compound 5-14, 4-methoxyphenyl 4-hydroxy-2-(1H-pyrazol-1-yl)pyrimidin-5-ylcarbamate] | 20 to 100
